Several values for one entry are separate records, joined by “and”; a condition that tells them apart may be missing. Equal entries are not always repeated.
Experiments:
Type in all cases: biochemical, bovine
PK40 = target: T1, PK40 (Bos taurus, UniProt P46196); assay: 32P kinase assay of purified PK40 with dephosphorylated NF-M as second substrate
T1 construct: from tissue; host or cells: bovine brain
Experimental: (§1) An alternative method for assaying the phosphorylating activity of the kinases was by ^32P assays. Radioactive assays in the same buffer system as for immunoassays contained 5 μg of HTP-purified native NF-triplet as substrate (3μg of substrate proteins other than NFs) and 150-250 cpm/pmole gamma-^32P-ATP. Incubation'times were 15 minutes at 37° C. for activities up to about 1 pmole/min/assay, since the assay responses were linear within these time intervals. Assays were stopped by cooling on ice, addition of 20 μl 25 mM EDTA and immediate transfer of the mixture onto glass filters (Whatman GF/A) wetted with 10% TCA/2% sodium pyrophosphate (PPA). The glass filters were washed twice for 1 hour and once for at least 3 hours in 10% TCA/2% PPA and finally in ethanol and were air-dried. Radioactivity was assessed by scintillation counting (Beckman LS 230) with 5 ml “Liquiscint” (National Diagnostics) for 20 minutes. Assays were routinely carried out in triplicate except for some duplicate assays in a few explicitly mentioned cases; a control assay lacking NFs was subtracted from the mean value.
(§2) The ATP dependence and inhibition of the activities of PK40 and PK36 were determined at 2 mM Mg^2+ with soluble dephosphorylated NF-M as second substrate to avoid uncertainties arising from the aggregation state of NF-triplet in suspension. The optima were at 0.5-1 mM ATP for both kinases. Apparent Km values for ATP of both kinases were estimated from Woolf-Hanes plots (Dixon and Webb, 1979) for a range of ATP concentrations sufficiently below the onset of inhibition. […] The apparent Km of PK36 was approximately 50 μM.

[1] = test system: KSP-phosphorylating kinases; assay: Immuno-dotblot assay (SMI-31/SMI-34 epitope reconstitution on dephosphorylated NF-triplet) with crude 35-45% ammonium sulfate fraction; conditions: crude enzyme
Experimental: The preferred method for the immunoassay for detecting KSP-phosphorylating kinases is as follows. […] After incubation at 37° C. for 18 hours, assays were diluted to 100 μl with 10 mM PBS, pH 7.2, and aliquots of 50 μl were spotted on nitrocellulose (0.22 μm, Schleicher and Schull). […] Blots were incubated with SMI mAbs for at least 2 hours. The blots were then washed five times. […] All incubations and washes were at room temperature. Incubations were sealed in plastic bags with 50 μl of solution/cm membrane. The foregoing procedure involved parameters that were optimized as follows. […] This activity was NF-specific, since the corresponding control immunoassay which lacked dephosphorylated native NF-triplet was almost negative for this fraction. […] The assays were performed with 0.5 mM Mg^2+ (unless indicated otherwise). […] Immuno-dotblot-assays were conducted to determine the optimal Mg^2+ and ATP concentrations using the SMI-31 and SMI-34 antibodies. […] Control assays were without NFs using 0.4 micrograms crude enzyme.

PK36 = assay: 32P kinase assay of purified PK36 with dephosphorylated NF-M as second substrate
Experimental: as §1, §2

[2] = 2 mM Mg2+, 5 mM ATP, % of control (2 mM Mg2+, 1 mM ATP)
[3] = ATP in relatively small excess over Mg2+
[4] = 5 mM Mg2+ over 1 mM ATP or 5 mM over 5 mM ATP
[5] = 5 mM Mg2+, 1 mM ATP, % of control
[6] = 5 mM Mg2+, 5 mM ATP, % of control

T1 sequence (P46196 2-360 limits assumed): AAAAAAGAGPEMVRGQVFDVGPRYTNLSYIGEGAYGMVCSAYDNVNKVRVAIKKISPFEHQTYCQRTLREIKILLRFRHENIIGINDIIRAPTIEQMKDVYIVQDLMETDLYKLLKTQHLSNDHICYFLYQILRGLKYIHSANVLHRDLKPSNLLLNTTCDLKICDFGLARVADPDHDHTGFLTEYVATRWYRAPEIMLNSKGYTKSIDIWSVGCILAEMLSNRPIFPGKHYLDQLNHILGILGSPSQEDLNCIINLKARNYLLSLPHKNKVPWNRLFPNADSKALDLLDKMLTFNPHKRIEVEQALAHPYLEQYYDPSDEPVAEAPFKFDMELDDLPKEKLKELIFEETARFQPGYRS

`Nc1ncnc2c1ncn2[C@@H]1O[C@H](COP(=O)(O)OP(=O)(O)OP(=O)(O)O)[C@@H](O)[C@H]1O` [ATP] was tested, and the “ATP optimum of PK40 activity” value (PK40; 2 mM Mg2+) was 0.5 to 1 mM, the “relative activity [%] of PK40” value (PK40; [2]) was 7% and 7.2 ± 6.9% and the Km (PK40; 2 mM Mg2+, Woolf-Hanes plots, mean ±S.D. of three determinations, read-out: apparent Km for ATP of PK40) was 93 ± 12 µM. For the same compound, the “inhibition of PK40 by excess ATP” value (PK40; [3]) was “strongly inhibited”, the “effect on kinase activity” value ([1]; ATP 5 mM) was “inhibited the kinase activity” and the “ATP optimum of PK36 activity” value (PK36; 2 mM Mg2+) was 0.5 to 1 mM. For the same compound, the “relative activity [%] of PK36” value (PK36; [2]) was 14% and 14 ± 0.5%, the Km (PK36; 2 mM Mg2+, Woolf-Hanes plots, read-out: apparent Km for ATP of PK36) was ~50 µM and the “inhibition of PK36 by excess ATP” value (PK36; [3]) was “strongly inhibited”.

With `Nc1nc2c(ncn2[C@@H]2O[C@H](COP(=O)(O)OP(=O)(O)OP(=O)(O)O)[C@@H](O)[C@H]2O)c(=O)[nH]1` [GTP] the “ability to substitute for ATP” value [1] was “could not substitute for ATP”.

In the case of `[Mg+2]` [Mg^2, magnesium], the “inhibition of PK40 with excess Mg2+” value (PK40; [4]) is reported as “little or no inhibition”, the “relative activity [%] of PK40” value (PK40; [5]) is reported as 107 ± 3.5% and the “relative activity [%] of PK40” value (PK40; [6]) is reported as 78 ± 7.1%. The “inhibition of PK36 with excess Mg2+” value (PK36; [4]) was “significantly reduced”, the “relative activity [%] of PK36” value (PK36; [5]) was 40 ± 0.2% and the “relative activity [%] of PK36” value (PK36; [6]) was 38 ± 2.2%.

In the case of `[Mn+2]` [Mn^2+], the “effectiveness relative to Mg2+” value [1] is reported as “about twice as effective as Mg^2+”.

With `[Cl-].[Na+]` [NaCl, sodium chloride] the “relative activity [%] of PK40” value (PK40; NaCl 150 mM, % of control) was 27 ± 1.8%, the “concentration that diminished the assay response” value ([1]; attributed to ionic strength) was “greater than 20 mM” and the “relative activity [%] of PK36” value (PK36; NaCl 150 mM, % of control) was 40 ± 0.8%.

Reference: patent US20020025942A1, “NOVEL TAU/NEUROFILAMENT PROTEIN KINASES” (priority 1991, published 2002)
